In patent publication US11186590B2, “Somatostatin modulators and uses thereof” (CRINETICS PHARMACEUTICALS, INC., priority 2018, dated 2021):

Target: hSSTR4 (Homo sapiens (Human), UniProt P31391)
Assay: selectivity for inhibition of cAMP via hSSTR2 vs. hSSTR4
Type: cell-based
Settings: Table B
From the text: General overview: All five SSTR subtypes are Gi coupled G-protein coupled receptors (GPCRs) that lead to decreases in intracellular cyclic AMP (cAMP) when activated by an agonist. Therefore, measurement of intracellular cAMP levels can be used to assess whether compounds of the invention are agonists of SSTR subtypes (John Kelly, Troy Stevens, W. Joseph Thompson, and Roland Seifert, Current Protocols in Pharmacology, 2005, 2.2.1-2.2). One example of an intracellular cAMP assay is described below.
Four days prior to the assay, 5,000 Chinese hamster ovary cells (CHO-K1, ATCC #CCL-61) stably expressing the human somatostatin receptor subtype 2 are plated in each well of a 96-well tissue culture-treated plate in Ham's F12 growth media (ThermoFisher #10-080-CM) supplemented with 10% donor bovine serum (Gemini Bio-Products #100-506), 100 U/mL penicillin; 100 ug/mL streptomycin; 2 mM L-glutamine (Gemini Bio-Products #400-110) and 0.2 mg/mL hygromycin B (GoldBio #31282-04-9). The cells are cultured at 37° C., 5% CO2 and 95% humidity. On the day of the assay, the media is aspirated and the cells are treated with 50 μL of 1.6 μM NKH477 (Sigma #N3290) plus various dilutions of compounds of the invention in assay buffer [1× Hank's Balanced Salt Solution (ThermoFisher #SH3058802), 0.5 mM HEPES pH 7.4, 0.1% bovine serum albumin, 0.2 mM 3-Isobutyl-1-methylxanthine (IBMX, VWR #200002-790)]. The cells are incubated for 20 minutes at 37° C. (the final concentration of the compounds of the invention are typically 0-10,000 nM). The cells are treated with 50 μL of lysis buffer (HRTF cAMP kit, Cisbio). The lysate is transferred to 384-well plates and cAMP detection and visualization antibodies are added and incubated for 1-24 hours at room temperature. The time-resolved fluorescent signal is read with a Tecan M1000Pro multiplate reader. The intracellular cAMP concentrations are calculated by regression to a standard curve and are plotted vs. the concentration of the compounds of the invention and the EC50 of the compounds are calculated using standard methods. All data manipulations are in GraphPad Prism v6.

Chain of hSSTR4 (P31391 whole entry): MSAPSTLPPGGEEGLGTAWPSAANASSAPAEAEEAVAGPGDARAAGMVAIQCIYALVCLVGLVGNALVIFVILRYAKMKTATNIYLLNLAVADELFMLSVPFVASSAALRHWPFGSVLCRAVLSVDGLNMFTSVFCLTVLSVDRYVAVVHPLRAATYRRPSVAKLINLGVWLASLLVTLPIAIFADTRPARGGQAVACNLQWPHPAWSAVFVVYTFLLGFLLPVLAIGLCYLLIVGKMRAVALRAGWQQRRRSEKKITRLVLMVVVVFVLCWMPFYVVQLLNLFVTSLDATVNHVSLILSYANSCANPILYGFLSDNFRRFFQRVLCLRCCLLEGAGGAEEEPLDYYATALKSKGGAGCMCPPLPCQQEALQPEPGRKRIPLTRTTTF

Row | hSST4/hSST2 (ratio) | Structure (SMILES)
1 | a (a = above 50) | COc1cc(C#N)cc2[nH]c(-c3c(N)ncc(-c4cc(C)cc(F)c4)c3N3CCC(N)CC3)nc12 [Compound 1-1, 2-[2-amino-4-(4-aminopiperidin-1-yl)-5-(3-fluoro-5-methylphenyl)pyridin-3-yl]-4-methoxy-1H-1,3-benzodiazole-6-carbonitrile]
2 | d (d = between 1 and 2.5) | COC(=O)c1ncc(-c2cc(C)cc(F)c2)c(N2CCC(N)CC2)c1-c1nc2cc(F)cc(OC)c2[nH]1 [Compound 2-1, methyl 4-(4-aminopiperidin-1-yl)-3-(6-fluoro-4-methoxy-1H-1,3-benzodiazol-2-yl)-5-(3-fluoro-5-methylphenyl)pyridine-2-carboxylate]
3 | e (e = between 1 and 0.5) | COc1cc(F)cc2nc(-c3c(C#N)ncc(-c4cc(C)cc(F)c4)c3N3CCC(N)CC3)[nH]c12 [Compound 2-2, 4-(4-aminopiperidin-1-yl)-3-(6-fluoro-4-methoxy-1H-1,3-benzodiazol-2-yl)-5-(3-fluoro-5-methylphenyl)pyridine-2-carbonitrile]
4 | b (b = between 15 and 50) | COc1cc(F)cc2nc(-c3c(C(N)=O)ncc(-c4cc(C)cc(F)c4)c3N3CCC(N)CC3)[nH]c12 [Compound 2-3, 4-(4-aminopiperidin-1-yl)-3-(6-fluoro-4-methoxy-1H-1,3-benzodiazol-2-yl)-5-(3-fluoro-5-methylphenyl)pyridine-2-carboxamide]

Same assay, conditions: Table C

Row | hSST4/hSST2 (ratio) | Structure (SMILES)
5 | c (c = between 2.5 and 15) | Nc1ncc(-c2cccc(F)c2)c(N2CC[C@@H]3NCCO[C@H]3C2)c1-c1nc2c(F)cc(F)cc2[nH]1 [Compound 3-3, 4-[(4αS,8αS)-octahydro-1H-pyrido[3,4-b][1,4]oxazin-6-yl]-3-(4,6-difluoro-1H-1,3-benzodiazol-2-yl)-5-(3-fluorophenyl)pyridin-2-amine]
6 | c (c = between 2.5 and 15) | COc1cc(F)cc2[nH]c(-c3c(N)ncc(-c4cccc(F)c4)c3N3CC[C@@H]4NCCO[C@H]4C3)nc12 [Compound 3-9, 4-[(4αS,8αS)-octahydro-1H-pyrido[3,4-b][1,4]oxazin-6-yl]-3-(6-fluoro-4-methoxy-1H-1,3-benzodiazol-2-yl)-5-(3-fluorophenyl)pyridin-2-amine]
7 | a (a = above 50) | CNc1ncc(-c2cccc(F)c2)c(N2CC[C@@H]3NCCO[C@H]3C2)c1-c1nc2c(OC)cc(F)cc2[nH]1 [Compound 3-10, 4-[(4αS,8αS)-octahydro-1H-pyrido[3,4-b][1,4]oxazin-6-yl]-3-(6-fluoro-4-methoxy-1H-1,3-benzodiazol-2-yl)-5-(3-fluorophenyl)-N-methylpyridin-2-amine]
8 | a (a = above 50) | COc1cc(C#N)cc2[nH]c(-c3c(N)ncc(-c4cccc(F)c4)c3N3CC[C@@H]4NCCO[C@H]4C3)nc12 [Compound 3-11, 2-{4-[(4αS,8αS)-octahydro-1H-pyrido[3,4-b][1,4]oxazin-6-yl]-2-amino-5-(3-fluorophenyl)pyridin-3-yl}-4-methoxy-1H-1,3-benzodiazole-6-carbonitrile]
9 | a (a = above 50) | CNc1ncc(-c2cccc(F)c2)c(N2CC[C@@H]3NCCO[C@H]3C2)c1-c1nc2c(OC)cc(C#N)cc2[nH]1 [Compound 3-12, 2-[4-[(4αS,8αS)-octahydro-1H-pyrido[3,4-b][1,4]oxazin-6-yl]-5-(3-fluorophenyl)-2-(methylamino)pyridin-3-yl]-4-methoxy-1H-1,3-benzodiazole-6-carbonitrile]
10 | a (a = above 50) | CNc1ncc(-c2cc(F)cc(Cl)c2)c(N2CC[C@@H]3NCCO[C@H]3C2)c1-c1nc2c(OC)cc(F)cc2[nH]1 [Compound 3-13, 4-[(4αS,8αS)-octahydro-1H-pyrido[3,4-b][1,4]oxazin-6-yl]-5-(3-chloro-5-fluorophenyl)-3-(6-fluoro-4-methoxy-1H-1,3-benzodiazol-2-yl)-N-methylpyridin-2-amine]
11 | c (c = between 2.5 and 15) | COc1cc(F)cc2[nH]c(-c3c(N)ncc(-c4cc(F)cc(Cl)c4)c3N3CC[C@@H]4OCCN[C@H]4C3)nc12 [Compound 3-17, 4-[(4αS,8αS)-octahydro-1H-pyrido[3,4-b][1,4]oxazin-6-yl]-5-(3-chloro-5-fluorophenyl)-3-(6-fluoro-4-methoxy-1H-1,3-benzodiazol-2-yl)pyridin-2-amine]
12 | b (b = between 15 and 50) | COc1cc(C#N)cc2[nH]c(-c3c(N)ncc(-c4cc(F)cc(F)c4)c3N3CC[C@@H]4NCCO[C@H]4C3)nc12 [Compound 3-18, 2-{4-[(4αS,8αS)-octahydro-1H-pyrido[3,4-b][1,4]oxazin-6-yl]-2-amino-5-(3,5-difluorophenyl)pyridin-3-yl}-4-methoxy-1H-1,3-benzodiazole-6-carbonitrile]
13 | b (b = between 15 and 50) | N#Cc1cc(F)c2nc(-c3c(N)ncc(-c4cc(F)cc(F)c4)c3N3CC[C@@H]4OCCN[C@H]4C3)[nH]c2c1 [Compound 3-19, 2-{4-[(4αS,8αS)-octahydro-1H-pyrido[3,4-b][1,4]oxazin-6-yl]-2-amino-5-(3,5-difluorophenyl)pyridin-3-yl}-4-fluoro-1H-1,3-benzodiazole-6-carbonitrile]

Test system: not listed separately
Assay: Liver microsomal stability assay
Type: in vitro ADME
Settings: human liver microsomes, 0.5 mg/mL protein, 37° C.
Protocol: The in vitro stabilities of compounds of interest were determined for various species using pooled male and female human, pooled male Sprague-Dawley rat, pooled male Cynomolgus monkey, and pooled male Beagle dog liver microsomes at microsomal protein concentrations of 0.5 mg/mL. Incubations were carried out in a potassium phosphate buffer (50 mM). The NADPH-generating system was composed of NADP+ (1 mM), magnesium chloride (3 mM), EDTA (1 mM), glucose-6-phosphate (5 mM) and glucose-6-phosphate dehydrogenase (1 Unit/mL) for all experiments. Compounds of interest in DMSO were added to achieve a final incubation concentration of […] (final DMSO content was 0.1% v/v and final acetonitrile content was 0.9%). The final incubation volume was 400 μL. Incubations were conducted at 37° C. for 0, 5, 10, 20, 40 and 60 minutes in a shaking water bath and terminated by removing 50 µL of incubation mixture and adding to 100 μL of ice cold acetonitrile containing internal standard. Following precipitation by centrifugation at 3500 rpm and 4° C. for 30 minutes, compounds of interest and internal standard were analyzed in the resultant supernatant using a multiple reaction monitoring (MRM) LC-MS/MS method. MS conditions were optimized for each analyte.
The following Table (Table D) illustrates human liver microsomal stability of exemplary compounds.

Row | HLM t1/2 [h] | Structure (SMILES)
14 | 1.65 | COc1cc(C#N)cc2[nH]c(-c3c(N)ncc(-c4cc(F)cc(F)c4)c3N3CC[C@@H]4NCCO[C@H]4C3)nc12 [Compound 3-18, 2-{4-[(4αS,8αS)-octahydro-1H-pyrido[3,4-b][1,4]oxazin-6-yl]-2-amino-5-(3,5-difluorophenyl)pyridin-3-yl}-4-methoxy-1H-1,3-benzodiazole-6-carbonitrile]
